Measurements taken from US10813951B2, “Method of engineering chemotherapy drug resistant T-cells for immunotherapy” (CELLECTIS, priority 2013, dated 2020).
Where two headings read alike, the source gives them in different places.

Legend:
dCK/TRAC KO CAR T cells = experiment: Sensitivity of CAR T cells to clofarabine and fludarabine (cell viability); type: cell-based
Description: (§7) These graphs allows determination of IC50 for both drugs clofarabine and fludarabine;
(§8) T cells were grown with or without clofarabine between D3 and D8 (see workflow 2 in FIG. 9), then they were incubated for 2 days (from D15 to D17) in media with different concentrations of clofarabine. T cells viability was then assessed by FACS analysis using the count bright kit.
(§9) These cells were then used to determined their sensitivity for clofarabine and fludarabine as performed before.

[1] = test system: double KO dCK/TCAR CAR T-cells; experiment: Growth rate of double KO CAR T-cells in the presence of clofarabine; type: cell-based; conditions: 11 days, clofarabine 0.1 μM to 10 μM, FIG. 14
Description: This experiment was performed on double KO dCK/TCAR T CAR T-cells (FMC63 which is described in patent application having the filing number PCT/EP2014/059662.) by culturing these cells during 11 days in media having different clofarabine (from 0.1 μM to 10 μM).

[2] = test system: CAR T cells negative control; experiment: Sensitivity of CAR T cells to clofarabine and fludarabine (cell viability); type: cell-based
Description: as §7, §8, §9

WT Daudi cells = experiment: Growth of Daudi cells in media with clofarabine; type: cell-based; conditions: clofarabine 0.1 to 1 μM, FIG. 19
Description: (§1) FIG. 19 represents the growth rate (expressed in ×10^6 cells) for a period of 7 days of KO dCK Daudi cells versus WT Daudi cells in the absence or presence of increasing amounts of clofarabine (0.1 to 1 μM);
(§2) Daudi cells were cultured in media having different concentrations of clofarabine (0; 0.1; 0.25; 0.5 and 1 μM) for several days and counted at each passage.

dCK KO Daudi cells = experiment: Growth of Daudi cells in media with clofarabine; type: cell-based; conditions: up to 1 μM clofarabine, FIG. 19
Description: as §1, §2

[3] = clinically relevant dose for ALL treatment, reported by EMA; cited from earlier work
dCK KO T cells = experiment: Clofarabine IC50, T cell viability by FACS; type: cell-based; conditions: 48 h, 2 days incubation with clofarabine 0 to 10 μM, FIG. 8, read-out: IC50 (amount of drug to decrease cell viability to 50%)
Description: (§3) FIG. 8 represents the percentage of cell viability of WT and dCK KO T cells (treated with 5 μg or 10 μg of mRNA encoding dCK2 TALE-nuclease pair) cultured for two days in the presence of increasing amount of clofarabine (10 nM to 10 μM). This graph allows to determine the Clofarabine IC50 toward both cell populations;
(§4) To further investigate the ability of T cells to resist to clofarabine, IC50 for this drug was determined on dCK KO and WT T cells. The cells were collected 3 days after transfection were incubated for 2 days in the presence of increasing concentration of clofarabine (0 to 10 μM). At the end of clofarabine incubation, viability of T cells was determined by FACS analysis2.
(§5) The results presented in FIG. 8 show clearly that the processing of dCK gene mediated by TALE-nucleases efficiently inactivates dCK activity in T cells. Such inactivation correlates to clofarabine resistance, contrasting with the sensitivity of WT T cells. The IC50 values (amount of drug to add in the media to decrease cell viability to 50%) correspond respectively to about 100 nM and 10 μM for WT and dCK KO T cells.

WT T cells [4] = experiment: Clofarabine IC50, T cell viability by FACS; type: cell-based; conditions: 48 h, 2 days incubation with clofarabine 0 to 10 μM, FIG. 8, read-out: IC50 (amount of drug to decrease cell viability to 50%)
Description: as §3, §4, §5

WT T cells [5] = experiment: 6TG IC50, T cell viability; type: cell-based; conditions: FIG. 27
Description: (§6) Such inactivation confers 6TG resistance that contrasts with the sensitivity of WT T cells to this drug. IC50 can be approximately determined to 10 nM and >100 μM for WT and HPRT KO T cells respectively.

HPRT KO T cells = experiment: 6TG IC50, T cell viability; type: cell-based; conditions: FIG. 27
Description: as §6

## Nc1nc(Cl)nc2c1ncn2[C@@H]1O[C@H](CO)[C@@H](O)[C@@H]1F [clofarabine]
dCK/TRAC KO CAR T cells; dCK/TRAC KO CAR T cells (FMC63), FIG. 17, read-out: IC50 clofarabine
  IC50: 500 nM
[1]
  cell expansion in presence of clofarabine: correct up to the 1 μM
[2]; CAR T cells negative control, FIG. 17, read-out: IC50 clofarabine
  IC50: 0.1 nM
WT Daudi cells
  growth of cells in presence of clofarabine: clearly impaired
dCK KO Daudi cells
  growth of cells in presence of clofarabine: able to grow
[3]
  Cmax: 1000 nM
dCK KO T cells
  IC50: ~10000 nM
WT T cells [4]
  IC50: ~100 nM

## Nc1nc2nc[nH]c2c(=S)[nH]1 [6TG, 6-thioguanine]
WT T cells [5]
  IC50: ~10 nM
HPRT KO T cells
  IC50: > 100000 nM

## Nc1nc(F)nc2c1ncn2[C@@H]1O[C@H](CO)[C@@H](O)[C@@H]1O [fludarabine]
dCK/TRAC KO CAR T cells; double KO CAR T cells, FIG. 17, read-out: IC50 fludarabine
  IC50: 400000 nM
[2]; T CAR control, FIG. 17, read-out: IC50 fludarabine
  IC50: 10000 nM
